Source: ChEMBL document CHEMBL3988442, “University of Dundee, Small-Polar-MMV Screening Library” (2021)
“And” between values parts separate entries of the source, which are not always exact repeats. Equal values may be shown once.

System: Plasmodium falciparum
Test: Calibr Malaria Delayed Death Assay SOP
Assay type: functional, organism-based
Conditions: for IC50: Plasmodium falciparum

CN(C)[C@@H]1CCN(c2ncccn2)[C@H]1Cc1ccccc1
pIC50: 6.116
IC50: 0.554 µM

CN(C)CCn1nc(C2CCN(Cc3ccccc3)C2)c2cccnc21 (configuration not stated)
pIC50: 5.827
IC50: 2.24 µM

CCC(C)(C)n1nnnc1C(c1cccs1)N1CCc2ccccc2C1 (configuration not stated)
pIC50: 6.38
IC50: 0.55 µM

Fc1ccc(Nc2ccc(C3CCN(Cc4ncc[nH]4)CC3)nc2)nc1
pIC50: 6.119
IC50: 0.987 µM

Cc1cccc(C)c1Nc1noc2c1CN(C(=O)c1ccnn1C)CC2
pIC50: 6.86
IC50: 0.142 µM

Cc1cccc(C)c1Nc1noc2c1CN(C(=O)c1cn(C)cn1)CC2
pIC50: 6.709
IC50: 0.19 µM

Cc1ccc(-c2ccccc2CC2(C(=O)NC(C)C)CCCNC2)cc1 (configuration not stated)
pIC50: 6.259
IC50: 0.491 µM

Cc1cccc(C)c1Nc1noc2c1CN(C(=O)c1c[nH]nc1C)CC2
pIC50: 6.277
IC50: 0.691 µM

Cc1cccc(C)c1Nc1noc2c1CN(C(=O)c1ccn(C)n1)CC2
pIC50: 6.694
IC50: 0.206 µM

Nc1cc(-c2c[nH]nc2C2CCCN2CCCc2ccccc2)ccn1 (configuration not stated)
pIC50: 6.087
IC50: 0.785 µM

Cc1nn(C)cc1C1=NS(=O)(=O)N(C)C(C(=O)Nc2ccc(Cl)cc2)=C1
pIC50: 6.442
IC50: 0.247 µM

Cc1cc(CN2CCc3nc(-c4ccncc4)nc(O)c3CC2)c(C)s1
pIC50: 5.926 and 6.258

FC(F)(F)c1cc(C2CCNCC2)nc(-c2ccsc2)n1
pIC50: 6.171
IC50: 0.626 µM

Cc1cccc(Nc2cccc(C3CCCN(Cc4ncc[nH]4)C3)n2)n1 (configuration not stated)
pIC50: 6.378
IC50: 0.465 µM

CC(C)NC(=O)C1(Cc2ccccc2-c2cccs2)CCNC1 (configuration not stated)
pIC50: 6.06
IC50: 0.982 µM

CC(C)CNC(=O)C1(Cc2ccccc2-c2cccs2)CCNC1 (configuration not stated)
pIC50: 6.092
IC50: 0.626 µM

CN(C(=O)c1ccon1)[C@@H]1CCC[C@@H](Oc2ccccc2)[C@@H]1O
pIC50: 5.983
IC50: 1.19 µM

CN1CCCCC1c1ncc2c(n1)CCN(Cc1ccc(F)cc1)C2 (configuration not stated)
pIC50: 5.899
IC50: 1.28 µM

Cc1cnccc1CN1CC[C@@](C)(O)[C@H](Oc2cccc(F)c2)C1
pIC50: 5.517
IC50: 2.33 µM

Cc1cnccc1CN1CC[C@H](Oc2cccc(F)c2)[C@@](C)(O)C1
pIC50: 5.772
IC50: 1.42 µM

Cc1cccnc1CN1CC[C@H](Oc2cccc(F)c2)[C@@](C)(O)C1
pIC50: 6.112
IC50: 0.71 µM

Cc1ccsc1CN(CCCN(C)C)Cc1ccccn1
pIC50: 6.353
IC50: 0.409 µM

COc1ccc(C(=O)NCCCOC(C)c2ccccc2)c(OC)c1 (configuration not stated)
pIC50: 6.022
IC50: 0.763 µM

OCCN1CCC(CNCc2ccc(Br)cc2)CC1
pIC50: 6.334
IC50: 0.364 µM

O=C(c1ccccc1)C1CCN(Cc2cc3c(cc2O)CCC3)CC1
pIC50: 6.259
IC50: 0.613 µM

CC(NCC1CCN(CCO)CC1)c1ccc(F)c(Cl)c1 (configuration not stated)
pIC50: 6.184
IC50: 0.758 µM

CC(NCC1CCN(CCO)CC1)c1ccc(OC(F)(F)F)cc1 (configuration not stated)
pIC50: 6.465
IC50: 0.343 µM

CC(NCC1CCN(CCO)CC1)c1cccc(Cl)c1 (configuration not stated)
pIC50: 6.336
IC50: 0.442 µM

CC(NCC1CCN(CCO)CC1)c1ccc(Cl)cc1 (configuration not stated)
pIC50: 6.133
IC50: 0.671 µM

COc1ccccc1C(C)(C)NCc1ccc(C)o1
pIC50: 5.785
IC50: 1.22 µM

COc1ccc(CN2CCNC(=O)CC2)cc1SC(F)(F)F
pIC50: 6.078
IC50: 0.754 µM

CCN(CC)Cc1ccccc1NC(=O)N(C)Cc1ccccc1O
pIC50: 6.076
IC50: 0.765 µM

COCCOc1ccccc1CNCC1COC2(CCCC2)O1 (configuration not stated)
pIC50: 6.238
IC50: 0.727 µM

CCc1cc(CNCc2ccccc2N(C)C2CCN(C)CC2)on1
pIC50: 6.107
IC50: 0.828 µM

CN1CCC(N(C)c2ccccc2CNCc2ccco2)CC1
pIC50: 6.649
IC50: 0.157 µM

Cc1noc(C)c1CNCc1ccccc1N(C)C1CCN(C)CC1
pIC50: 6.243
IC50: 0.489 µM

CC(=O)N(c1ccc(F)cc1)c1nc(CN2CCCC2C(C)C)cs1 (configuration not stated)
pIC50: 6.177
IC50: 0.479 µM

CC(=O)N(c1ccc(C)cc1)c1nc(CN2CCCC(C)C2)cs1 (configuration not stated)
pIC50: 5.762
IC50: 1.61 µM

CCC(NCc1ccccc1Cl)c1ccccc1OCC(=O)NC (configuration not stated)
pIC50: 6.134 and 5.792

CCC(NCc1ccccc1C)c1ccccc1OCC(=O)NC (configuration not stated)
pIC50: 6.158
IC50: 0.731 µM

CCC(NCc1cccc(Cl)c1)c1ccccc1OCC(=O)NC (configuration not stated)
pIC50: 6.073
IC50: 1.37 µM

COc1ccc(Cn2nnnc2SCC2CCCN(C)C2)cc1 (configuration not stated)
pIC50: 5.834
IC50: 1.09 µM

CC(C)Oc1ccc(C(O)CNCc2ccccc2C(F)(F)F)cc1 (configuration not stated)
pIC50: 5.963
IC50: 1.15 µM

Cc1ccccc1CNCC(O)c1ccc(OC(C)C)cc1 (configuration not stated)
pIC50: 6.206
IC50: 0.637 µM

Cc1cc(N2CCC(NC(C)Cc3ccsc3)CC2)nc(C)n1 (configuration not stated)
pIC50: 6.277
IC50: 0.508 µM

O=C(NCC1CCN(CCc2ccccc2)C1)c1cc(Cl)c[nH]1 (configuration not stated)
pIC50: 5.911
IC50: 1.26 µM

Cc1cc(NC(=O)NC2CCN(C(C)C)CC2)c2ncccc2c1
pIC50: 5.97
IC50: 0.796 µM

CN1CCN(c2ccccc2NC(=O)NCCc2ccccc2)CC1
pIC50: 6.032
IC50: 0.998 µM

CN(CCc1cccc2ccccc12)Cc1nc(N)nc(N(C)C)n1
pIC50: 5.915
IC50: 1.24 µM

Brc1cccc(C2(CNCc3cc[nH]c3)CCOCC2)c1
pIC50: 6.135
IC50: 0.829 µM

COCCC1(CNC(=O)Nc2ccnc(C)c2)CCCC1
pIC50: 6.054
IC50: 0.876 µM

CN1CCN(S(=O)(=O)c2ccc(Cl)c(Cl)c2)c2cnccc21
pIC50: 6.238
IC50: 0.557 µM

CC(C)C(CNCc1cccc2c1OCO2)N1CCOCC1 (configuration not stated)
pIC50: 6.558
IC50: 0.429 µM

Cc1n[nH]cc1CNC1(c2ccc(F)cc2)CCCC1
pIC50: 6.295
IC50: 0.584 µM

CC(NCCN1CCC(N(C)C)CC1)c1ccc(Cl)s1 (configuration not stated)
pIC50: 6.149
IC50: 0.996 µM

NC(=O)CN1CCC(Nc2ccnc3ccc(Cl)cc23)CC1
pIC50: 6.054
IC50: 0.761 µM

Cc1cccc(C2(NCCCS(C)(=O)=O)CCCC2)c1
pIC50: 6.254
IC50: 0.659 µM

Cc1cn2c(n1)C(CNCc1ccc(C)s1)CCC2 (configuration not stated)
pIC50: 6.227
IC50: 0.722 µM

O=C(CN1CCCC(c2ccn[nH]2)C1)Nc1nc2c(s1)CCCC2 (configuration not stated)
pIC50: 6.624
IC50: 0.248 µM

Cc1cc(Br)cnc1NCCN1CCC(N(C)C)CC1
pIC50: 6.294
IC50: 0.472 µM

COCCCN1CCCN(C(C)C(=O)Nc2cccc(I)c2)CC1 (configuration not stated)
pIC50: 6.54
IC50: 0.483 µM

Cc1cc(F)ccc1-c1ccccc1CC1CNCCNC1=O.Cl (configuration not stated)
pIC50: 6.113
IC50: 1.19 µM

Cl.Fc1cccc(F)c1Cn1c(C2CCCNC2)cc2cccnc21 (configuration not stated)
pIC50: 6.143
IC50: 1.05 µM

Cl.Fc1ccccc1Cn1c(C2CCNCC2)cc2cccnc21
pIC50: 6.466
IC50: 0.293 µM

COc1cccc(Cn2c(C3CCNCC3)cc3cccnc32)c1.Cl
pIC50: 6.096
IC50: 0.931 µM

COc1ccccc1C1(NCc2c(C)nc3c(C)cccn23)CCCC1.Cl
pIC50: 6.178
IC50: 0.748 µM

Cl.Fc1cccc(F)c1Cn1c(C2CCNCC2)cc2cccnc21
pIC50: 6.523
IC50: 0.307 µM

Cc1nc(-c2ccc(F)c(F)c2)cc(C2CCNCC2)n1.Cl
pIC50: 6.123
IC50: 0.797 µM

Cl.OC1(c2ccc(F)cc2)CCN(Cc2ccccc2N2CCCC2)CC1
pIC50: 5.924
IC50: 0.85 µM

CC(C)(C)C(=O)N1C[C@H](c2ccsc2)[C@H]2CN(C3CCCCC3)CC[C@H]21.Cl
pIC50: 6.133
IC50: 0.683 µM

Cc1ccc(C2(CN3CCN(Cc4cnc(C)n4C)CC3)CC2)cc1.Cl
pIC50: 6.615
IC50: 0.255 µM

COc1cccc([C@H]2CN(C(C)=O)[C@@H]3CCN(Cc4ccsc4)C[C@H]23)c1.Cl
pIC50: 5.897
IC50: 1.07 µM

Cc1ccc2c(c1)CN(C(=O)C1CCCCC1)C(CN(C)C)CO2.Cl (configuration not stated)
pIC50: 6.082
IC50: 0.88 µM

Cl.NCC1(c2cccc(Br)c2)CCOCC1
pIC50: 6.127
IC50: 0.705 µM

COc1ccc(CN2CC[C@@H](O)[C@@H]2Cc2ccccc2)cc1.O=C(O)C(F)(F)F
pIC50: 5.901
IC50: 1.54 µM

CN(C)[C@@H]1CCN(S(=O)(=O)C2CC2)[C@H]1Cc1ccccc1.O=C(O)C(F)(F)F
pIC50: 5.682
IC50: 2.83 µM

Cc1noc(C)c1CN1C[C@H]2CN(Cc3cccc(F)c3)C[C@H]2C1.O=C(O)C(F)(F)F.O=C(O)C(F)(F)F
pIC50: 5.762
IC50: 1.22 µM

Cc1ccc(CNC2CC3(CCN(CCO)CC3)c3ccccc32)s1.O=C(O)C(F)(F)F.O=C(O)C(F)(F)F (configuration not stated)
pIC50: 6.464
IC50: 0.322 µM

COCCN1CCC2(CC1)CC(NCc1ccc(C)s1)c1ccccc12.O=C(O)C(F)(F)F.O=C(O)C(F)(F)F (configuration not stated)
pIC50: 6.267
IC50: 0.561 µM

O=C(O)C(F)(F)F.O=C(O)C(F)(F)F.O=C(O)C(F)(F)F.c1cnn(C[C@@H]2C[C@@H]3CN(CC4CC4)CC[C@@H]3N2c2nccs2)c1
pIC50: 6.063
IC50: 0.859 µM

Cc1ccc(CN(CCN(C)C)Cc2c(C)nc3sccn23)o1.O=C(O)CC(O)(CC(=O)O)C(=O)O
pIC50: 6.093
IC50: 0.506 µM

CCC(CN1CCCCC1)NC(=O)C1(c2ccc(F)cc2)CC1.O=C(O)CC(O)(CC(=O)O)C(=O)O (configuration not stated)
pIC50: 6.19
IC50: 0.709 µM

Cc1ncc(CN(Cc2ccccn2)Cc2ccccc2Cl)n1C.O=C(O)CC(O)(CC(=O)O)C(=O)O
pIC50: 6.286
IC50: 0.491 µM

Cc1cc(C[C@@H]2CCC[C@H]2NCc2c[nH]nc2-c2ccccc2)on1.O=C(O)CC(O)(CC(=O)O)C(=O)O
pIC50: 5.845
IC50: 1.23 µM

CC1(C)CC(N(Cc2cccnc2)Cc2cccc(F)c2)CC(C)(C)N1.O=C(O)CC(O)(CC(=O)O)C(=O)O
pIC50: 6.708
IC50: 0.291 µM

Cc1ccsc1CN(Cc1cccnc1)C1CC(C)(C)NC(C)(C)C1.O=C(O)CC(O)(CC(=O)O)C(=O)O
pIC50: 6.511
IC50: 0.29 µM

CCCOc1ccccc1CN[C@@H]1CCC[C@H]1Cc1cc(C)no1.O=C(O)CC(O)(CC(=O)O)C(=O)O
pIC50: 5.985
IC50: 1.23 µM
